Three compounds from ChEMBL document CHEMBL5226281, “Synergistic effects of curcumin and its analogs with other bioactive compounds: A comprehensive review” (Eur J Med Chem, 2021) can be followed below.

Each structure is given as a SMILES string.

The test system of one assay is Plasmodium falciparum. The assay is described as follows: Antimalarial activity against Plasmodium falciparum infected in mouse assessed as survival at 0.5 mg/kg, po measured after 40 days relative to control. The class given is functional. The note with it: time 40 day.
For the next assay, the system named is HSC-2. Kind of assay: Synergistic cytotoxicity against human HSC-2 cells. It counts as functional, cell-based.
Another assay has as its system HCT-116. The assay is described as follows: Synergistic antiproliferative activity against human HCT-116 cells assessed as inhibition of cell growth. The class given is functional, cell-based.
The target in assay [1] is Mitogen-activated protein kinase 8 (Homo sapiens) (UniProt P45983). Kind of assay: Activation of JNK in human CMT12 cells. The class given is cell-based.
For a further assay, the system named is MCF7. Kind of assay: Synergistic antiproliferative activity against human MCF7 cells assessed as inhibition of cell growth. It counts as functional. Further details: scale not given: the % may be the effect or the level left.
The subject of the next assay is DLD-1. Kind of assay: Synergistic antiproliferative activity against human DLD-1 cells assessed as inhibition of cell growth. It counts as functional, cell-based.
A short description of assay [2]: Antiproliferative activity against rat AY-27 cells assessed as inhibition of cell growth incubated for 3 hrs by MTT assay. Further details: scale not given: the % may be the effect or the level left. It counts as functional.
The nature of assay [3]: Antiproliferative activity against human WERI-Rb-1 cells assessed as inhibition of cell growth incubated for 48 hrs by MTT assay. It counts as functional, cell-based. The note with it: WERI-Rb-1, 48 h. In general terms: Formazan colour is commonly taken as a measure of viable cells.
A short description of assay [4]: Induction of apoptosis in rat AY-27 cells at 10 uM by Annexin V-PE and 7AAD staining based flow cytometry. It counts as functional. (In flow cytometry, cells or beads pass a laser one at a time.)
In another assay the test system is Y79. The assay is described as follows: Antiproliferative activity against human Y79 cells assessed as inhibition of cell growth incubated for 48 hrs by MTT assay. The class given is functional, cell-based. The note with it: Y79, 48 h.

Sequence of Mitogen-activated protein kinase 8 (Homo sapiens) (P45983 whole entry): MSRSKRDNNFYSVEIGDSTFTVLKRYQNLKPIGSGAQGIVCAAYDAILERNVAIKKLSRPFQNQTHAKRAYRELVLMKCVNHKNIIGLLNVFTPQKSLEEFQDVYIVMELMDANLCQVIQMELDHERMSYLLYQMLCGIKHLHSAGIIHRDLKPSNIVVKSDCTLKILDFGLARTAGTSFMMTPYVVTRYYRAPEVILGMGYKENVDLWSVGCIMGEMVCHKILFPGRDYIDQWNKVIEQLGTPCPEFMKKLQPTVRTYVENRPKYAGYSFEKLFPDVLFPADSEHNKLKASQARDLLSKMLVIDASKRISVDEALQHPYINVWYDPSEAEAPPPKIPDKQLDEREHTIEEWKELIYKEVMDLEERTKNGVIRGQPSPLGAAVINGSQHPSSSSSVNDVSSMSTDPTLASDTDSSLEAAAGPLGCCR

As to `C[C@@H]1CC[C@H]2[C@@H](C)C(=O)O[C@@H]3O[C@@]4(C)CC[C@@H]1[C@]32OO4` [ARTEMISININ], the Activity in the assay on Plasmodium falciparum is on record as 100%.

Consider `COc1cc(/C=C/C(=O)CC(=O)/C=C/c2ccc(O)c(OC)c2)ccc1O` [CURCUMIN], for which the IC50 in the assay with HSC-2 amounted to 3.1 µM; in the assay with HCT-116, 10 µM; with DLD-1, 10 µM; in assay [3], 25 µM; in the assay on Y79, 30 µM. Moreover, the Activity in assay [1] stood at 30%; in the assay with MCF7 it was 65.92%; in [2] it was 85%; in assay [4] it was 36%.

For `Oc1ccc(/C=C/c2cc(O)cc(O)c2)cc1` [RESVERATROL], the IC50 with HSC-2 came to 3.1 µM.

For orientation: IC50 means the midpoint of a concentration-inhibition curve.
